Measurements: article PMC10326435, “Antiprotozoal activity of natural products from Nigerien plants used in folk medicine” (Frontiers in Pharmacology, 2023)
Where two headings read alike, the source gives them in different places.

Columns and labels:
cytotoxicity in L6 cells = format: cell-based, rat; details: rat
Protocol: (§1) The in vitro activity was assessed on T. b. rhodesiense (STIB900, trypomastigotes), T. cruzi (Tulahuen C2C4, intracellular amastigotes), L. donovani (MHOM-ET-67/L82, axenically grown amastigotes), P. falciparum (NF54, intraerythrocytic), and L6 cells (ATCC, CRL-1458™, rat skeletal myoblasts) as previously described ([Bernal et al., 2020]). The activities were determined in serial dilution assays with 72 h compound exposure, respectively 96 h for intracellular T. cruzi. Results are expressed in µg/mL for extracts and in µM for pure compounds. The IC50 values were determined for the compounds only when they were <50 µM.

P. falciparum = details: cited from earlier work
[1] = tested on: P. falciparum (NF54, intraerythrocytic); test: in vitro activity on P. falciparum, serial dilution assay; format: cell-based, Plasmodium falciparum; details: for IC50: 72 h exposure, means of two independent assays ± deviation from the mean, read-out: IC50 P. falciparum; for Selectivity index (SI) P. falciparum: SI = IC50 cytotoxicity (L6)/IC50 in P. falciparum
Protocol: as §1

[2] = tested on: L. donovani (MHOM-ET-67/L82, axenically grown amastigotes); test: in vitro activity on L. donovani, serial dilution assay; format: cell-based, Leishmania donovani; details: for IC50: axenic amastigotes, 72 h exposure, means of two independent assays ± deviation from the mean, read-out: IC50 L. donovani; for Selectivity index (SI) L. donovani: SI = IC50 cytotoxicity (L6)/IC50 in L. donovani
Protocol: as §1

[3] = tested on: T. cruzi (Tulahuen C2C4, intracellular amastigotes); test: in vitro activity on T. cruzi, serial dilution assay; format: cell-based, Trypanosoma cruzi; details: for IC50: 96 h exposure, means of two independent assays ± deviation from the mean, read-out: IC50 T. cruzi; for Selectivity index (SI) T. cruzi: SI = IC50 cytotoxicity (L6)/IC50 in T. cruzi
Protocol: as §1

[4] = tested on: T. b. rhodesiense (STIB900, trypomastigotes); test: in vitro activity on T. b. rhodesiense, serial dilution assay; format: cell-based, Trypanosoma brucei rhodesiense; details: for IC50: 72 h exposure, means of two independent assays ± deviation from the mean, read-out: IC50 T. b. rhodesiense; for Selectivity index (SI) T. b. rhodesiense: SI = IC50 cytotoxicity (L6)/IC50 in T. b. rhodesiense
Protocol: as §1

[5] = tested on: intracellular L. donovani amastigotes in mouse macrophages; test: intracellular L. donovani amastigotes in mouse macrophages; format: cell-based, Leishmania donovani; details: not active, read-out: IC50 against intracellular L. donovani amastigotes
Source text: The antiparasitic activity of myricitrin (1) and quercitrin (2) was already described in the literature ([Muzitano et al., 2006]; [Larit et al., 2021]), and therefore it was not evaluated in the present study. Compound 3 was the only compound evaluated from the extract of C. sieberiana and was compared to the activity of miltefosine due to structural similarities. […] Among the cyclopeptide alkaloids isolated from the DCM extract of Z. mauritiana (4, 5, 7–12), a methoxy group at C-13 (10–12) seems to be favorable for the antiplasmodial activity. In addition, the indole group at C-29 present in compounds 9 and 12 seems to be important for the activity against T. b. rhodesiense. […] This is the first report on the antileishmanial and antitrypanosomal activities of these compounds. […] This is in agreement with our study. Among the triterpene derivatives isolated from the DCM root bark extract of Z. mauritiana (6, 13–19), betulinic acid (19), an already well-studied compound, was not tested in this work. […] The triterpenoids tested in the present work (Table 3) were mainly active against L. donovani and presented a good selectivity index. The substitution with an epoxy group in compound 13 compared to compound 6 enhanced the activity toward L. donovani and P. falciparum but not against T. cruzi. […]

[6] = tested on: L6 cells (ATCC, CRL-1458, rat skeletal myoblasts); test: cytotoxicity in L6 cells; format: cell-based; details: rat, 72 h
Protocol: as §1

T. b. rhodesiense = details: previously reported; ref Cretton et al., 2015; read-out: IC50 against T. b. rhodesiense; cited from earlier work
Leishmania spp. = tested on: Leishmania spp.; set-up: method as in Rocha et al., 2022; details: no significant activity; ref Rocha et al., 2022; read-out: IC50 against Leishmania spp.; cited from earlier work
T. cruzi = details: read-out: IC50 against T. cruzi, cited from earlier work
L. amazonensis = tested on: L. amazonensis; set-up: method as in Costa et al., 2018; details: ref Costa et al., 2018; read-out: IC50 against L. amazonensis; cited from earlier work
[7] = already reported, ref Suksamrarn et al., 2006, Panseeta et al., 2011, Tuenter et al., 2017, read-out: antiplasmodial activity IC50
[8] = Plasmodium falciparum, NF54, 72 h
[9] = Trypanosoma cruzi, TULAHUEN, 96 h
[10] = L6 cells (rat skeletal myoblasts, ATCC CRL-1458), rat skeletal myoblast (L6 cells), 72 h exposure, means of two independent assays ± deviation from the mean, read-out: IC50 Cytotoxicity

SMILES	IC50 at 72 h (cytotoxicity in L6 cells; IC50 Cytotoxicity)	IC50 (P. falciparum; [7])	IC50 [1, 8]	Selectivity index (SI) P. falciparum [1]	IC50 ([2]; Leishmania donovani, 72 h)	IC50 [3, 9]	IC50 ([4]; Trypanosoma brucei, 72 h)	Selectivity index (SI) L. donovani [2]	Selectivity index (SI) T. cruzi [3]	Selectivity index (SI) T. b. rhodesiense [4]	other results
CN[C@@H](C)C(=O)N[C@H](C(=O)N1CC[C@@H]2Oc3ccc(cc3)/C=C\NC(=O)[C@H](Cc3ccccc3)NC(=O)[C@H]21)C(C)C [Compound 4, mauritine F]	> 50 µM	34.2 µM	24.3 ± 4.5 µM	> 5.5	> 50 µM	> 50 µM	> 50 µM				
C=C(C)[C@@H]1CC[C@]2(C(=O)O)CC[C@]3(C)[C@H](CC[C@@H]4[C@@]5(C)[C@@H](C(=O)O)[C@H](O)C(C)(C)[C@@H]5CC[C@]43C)[C@@H]12 [Compound 6, ceanothic acid]	> 50 µM	> 20 µM	> 50 µM		29 ± 3.3 µM	> 50 µM	> 50 µM	> 1.7			
CN[C@H](C)C(=O)N[C@H](C(=O)N1CC[C@@H]2Oc3ccc(OC)c(c3)/C=C\NC(=O)[C@H](Cc3ccccc3)NC(=O)[C@H]21)C(C)C [Compound 11, N-demethylamphibine H]	> 50 µM	3.6 µM	14.7 ± 4.2 µM	> 5.4	44.8 ± 3.4 µM	> 50 µM	> 50 µM	> 1.5			
CCC(C)[C@@H]1NC(=O)[C@@H]2[C@H](CCN2C(=O)[C@H](Cc2c[nH]c3ccccc23)NC(=O)[C@H](CC(C)C)NC)Oc2ccc(OC)c(c2)/C=C\NC1=O (stereo partly shown) [Compound 12, mauritine M]	31.8 ± 7.6 µM	3.7 µM	2.6 ± 0.2 µM	12.2	> 50 µM	15.7 ± 1.1 µM	6.4 ± 2 µM		2.0	5.0	
C=C(C)C1CCC2(C(=O)O)CCC3(C)C(CCC4C5(C)C(C(=O)O)C(OC(=O)c6ccccc6)C(C)(C)C5CCC43C)C12 [Compound 15, (1R, 3S)-3-O-benzoyl ceanothic acid]	16.4 ± 5.8 µM		10.1 ± 0.6 µM	1.6		43.8 ± 8.4 µM		32.8	0.4	1.4	IC50 ([5]; Leishmania donovani, Macrophage): > 50 µM; IC50 [2]: 0.5 ± 0.2 µM; IC50 [4]: 11.7 ± 1 µM
C=C(C)C1CCC2(C(=O)O)CCC3(C)C(CCC4C5(C)C(C(=O)O)C(OC(=O)c6ccccc6)C(C)(C)C5CCC43C)C12 [Compound 16, (1S, 3S)-3-O-benzoyl ceanothic acid]				2.1				17.9		1.1	IC50 [6]: 32.3 ± 5.1 µM; IC50 [5]: > 50 µM; IC50 [1]: 15.3 ± 1.5 µM; IC50 [2]: 1.8 ± 0.7 µM; IC50 [3]: > 50 µM; IC50 [4]: 30.6 ± 2.8 µM
C=C(C)[C@@H]1CC[C@]2(C(=O)O)CC[C@]3(C)[C@H](CC[C@@H]4[C@@]5(C)CC[C@H](O)C(C)(C)[C@@H]5CC[C@]43C)[C@@H]12 [Compound 19, betulinic acid]											IC50 (P. falciparum; previously reported, ref Cretton et al., 2015, read-out: IC50 against P. falciparum): 19 µM; IC50 (T. b. rhodesiense): 4.2 µM; IC50 (Leishmania spp.): > 25 µM; IC50 (T. cruzi; no significant activity, ref Rocha et al., 2022): > 25 µM
CC(C)=CCC1=C(O)C(=O)c2c(O)ccc(O)c2C1=O [Compound 20]			45 ± 4.6 µM	0.3	1.9 ± 0.4 µM	27.4 ± 1.3 µM	6.9 ± 1.3 µM	7.4	0.5	2.0	IC50 at 72 h (cytotoxicity in L6 cells; [10]): 14 ± 0.4 µM; IC50 (P. falciparum; previously evaluated, ref Kopa et al., 2014, read-out: antiplasmodial activity IC50): 3 µM
CC(C)=CC[C@@]12O[C@@H]1C(=O)c1c(O)ccc(O[C@@H]3O[C@H](CO)[C@@H](O)[C@H](O)[C@H]3O)c1C2=O [Compound 26]			9 ± 5.4 µM	1.4	3.5 ± 0.5 µM	39.2 ± 5 µM	9.9 ± 4.5 µM	3.5	0.3	1.2	IC50 at 72 h (cytotoxicity in L6 cells; [10]): 12.2 ± 1.8 µM
CC1(C)C=CC2=C(O1)C(=O)c1c(O)ccc(O[C@@H]3O[C@H](CO)[C@@H](O)[C@H](O)[C@H]3O)c1C2=O [Compound 29]			> 50 µM		11.4 ± 2.3 µM	> 50 µM	12.5 ± 1.6 µM	3.5		3.2	IC50 at 72 h (cytotoxicity in L6 cells; [10]): 40.3 ± 0.7 µM; IC50 (L. amazonensis): 12.6 µM; IC50 (T. cruzi; ref Costa et al., 2018): 7.6 µM
COc1cc([C@@H]2OC[C@@H]3[C@H]2CO[C@H]3c2cc(OC)c(O)c(OC)c2)cc(OC)c1O [Compound 30]	13 ± 1.7 µM		22.6 ± 2 µM	0.6	13.4 ± 2.3 µM	29.2 ± 11.4 µM	20.2 ± 1.8 µM	1.0	0.4	0.6	
